Experimental data from US7482456B2, “8-(3-Biaryl)phenylquinoline phosphodiesterase-4 inhibitors” (Merck Frosst Canada, priority 2003, dated 2009).

Target: T1, human recombinant phosphodiesterase IVa (met-248) (Homo sapiens, UniProt P27815)
T1 construct: human recombinant phosphodiesterase IVa (met-248); made in house; host or cells: baculovirus/Sf-9
Assay: SPA based PDE activity assay
Type: biochemical
Settings: 100 nM cAMP; purified GST fusion protein of human recombinant PDE IVa (met-248), baculovirus/Sf-9
Procedure: Compounds which inhibit the hydrolysis of cAMP to AMP by the type-IV cAMP-specific phosphodiesterases were screened in a 96-well plate format as follows:
In a 96 well-plate at 30° C. was added the test compound (dissolved in 2 μL DMSO), […] of substrate buffer containing [2,8-^3H] adenosine 3′,5′-cyclic phosphate (cAMP, 100 nM to 50 μM), 10 mM MgCl2, 1 mM EDTA, 50 mM Tris, pH 7.5. The reaction was initiated by the addition of […] of human recombinant PDE4 (the amount was controlled so that ˜10% product was formed in 10 min.). The reaction was stopped after 10 min. by the addition of 1 mg of PDE-SPA beads (Amersham Pharmacia Biotech, Inc., Piscataway, N.J.). The product AMP generated was quantified on a Wallac Microbeta® 96-well plate counter (EG&G Wallac Co., Gaithersburg, Md.). The signal in the absence of enzyme was defined as the background. 100% activity was defined as the signal detected in the presence of enzyme and DMSO with the background subtracted. Percentage of inhibition was calculated accordingly. IC50 value was approximated with a non-linear regression fit using the standard 4-parameter/multiple binding sites equation from a ten point titration.

T1 sequence (P27815 248-886 limits assumed): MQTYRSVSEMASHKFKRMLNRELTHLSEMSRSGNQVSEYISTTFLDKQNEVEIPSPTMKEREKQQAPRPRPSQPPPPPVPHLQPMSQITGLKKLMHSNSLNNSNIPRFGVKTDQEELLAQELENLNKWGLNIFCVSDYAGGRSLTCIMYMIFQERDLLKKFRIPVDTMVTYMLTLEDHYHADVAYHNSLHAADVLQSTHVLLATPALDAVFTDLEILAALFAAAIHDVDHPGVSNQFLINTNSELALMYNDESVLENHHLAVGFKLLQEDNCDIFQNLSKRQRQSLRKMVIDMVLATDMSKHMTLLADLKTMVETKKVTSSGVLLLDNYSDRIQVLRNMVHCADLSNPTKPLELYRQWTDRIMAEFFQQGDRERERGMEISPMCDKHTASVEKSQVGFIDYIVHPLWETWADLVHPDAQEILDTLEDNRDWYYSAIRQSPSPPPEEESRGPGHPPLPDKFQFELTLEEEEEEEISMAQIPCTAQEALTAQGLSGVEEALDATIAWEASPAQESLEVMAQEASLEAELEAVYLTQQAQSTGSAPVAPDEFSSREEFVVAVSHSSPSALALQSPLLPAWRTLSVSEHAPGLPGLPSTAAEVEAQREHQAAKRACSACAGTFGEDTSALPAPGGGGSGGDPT

Structure (SMILES): CC(C)(c1cc(-c2cccc(-c3sc(-c4cccc(Cl)c4)nc3-c3ccc(S(C)(=O)=O)cc3)c2)c2ncccc2c1)S(C)(=O)=O [Example 1, 8-(3-{2-(3-chlorophenyl)-4-[4-(methylsulfonyl)phenyl]-1,3-thiazol-5-yl}phenyl)-6-[1-methyl-1-(methylsulfonyl)ethyl]quinoline]
- IC50: 0.3 nM

Structure (SMILES): CC(C)(c1cc(-c2cccc(-c3sc(-c4cccc(S(C)(=O)=O)c4)nc3-c3ccc(S(C)(=O)=O)cc3)c2)c2ncccc2c1)S(C)(=O)=O [Example 41]
- IC50: 1 nM

Structure (SMILES): CC(C)(O)c1cccc(-c2nc(-c3ccc(S(C)(=O)=O)cc3)c(-c3cccc(-c4cc(C(C)(C)S(C)(=O)=O)cc5cccnc45)c3)s2)c1 [Example 69, 2-(3-{5-(3-{6-[1-methyl-1-(methylsulfonyl)ethyl]quinolin-8-yl}phenyl)-4-[4-(methylsulfonyl)phenyl]-1,3-thiazol-2-yl}phenyl)propan-2-ol]
- IC50: 0.6 nM

Structure (SMILES): CC(C)(O)c1nc(-c2cccc(-c3cc(C(C)(C)S(C)(=O)=O)cc4cccnc34)c2)c(-c2ccc(S(C)(=O)=O)cc2)s1 [Example 78, 2-{4-(3-{6-[1-methyl-1-(methylsulfonyl)ethyl]quinolin-8-yl}phenyl)-5-[4-(methylsulfonyl)phenyl]-1,3-thiazol-2-yl}propan-2-ol]
- IC50: 0.4 nM

Structure (SMILES): CC(O)(c1ccc(Cl)cc1)c1nc(-c2cccc(-c3cc(C(C)(C)S(C)(=O)=O)cc4cccnc34)c2)c(-c2ccc(S(C)(=O)=O)cc2)s1 (centres unmarked) [Example 82, 1-(4-chlorophenyl)-1-{4-(3-{6-[1-methyl-1-(methylsulfonyl)ethyl]quinolin-8-yl}phenyl)-5-[4-(methylsulfonyl)phenyl]-1,3-thiazol-2-yl}ethanol]
- IC50: 3.1 nM

Structure (SMILES): CC(C)(O)c1cccc(-c2nc(-c3ccc(F)c(Cl)c3)c(-c3cccc(-c4cc(C(C)(C)S(C)(=O)=O)cc5cccnc45)c3)s2)c1 [Example 88, 2-{3-[4-(3-chloro-4-fluorophenyl)-5-(3-{6-[1-methyl-1-(methylsulfonyl)ethyl]quinolin-8-yl}phenyl)-1,3-thiazol-2-yl]phenyl}propan-2-ol]
- IC50: 1.6 nM

Structure (SMILES): CC(C)(O)c1nc(-c2cccc(-c3cc(C(C)(C)S(C)(=O)=O)cc4cccnc34)c2)c(-c2ccc(Cl)cc2)s1 [Example 94, 2-[5-(4-chlorophenyl)-4-(3-{6-[1-methyl-1-(methylsulfonyl)ethyl]quinolin-8-yl}phenyl)-1,3-thiazol-2-yl]propan-2-ol]
- IC50: 4.3 nM

Structure (SMILES): Cc1noc(-c2cc(-c3cccc(-c4cc(C(C)(C)S(C)(=O)=O)cc5cccnc45)c3)c[n+]([O-])c2)n1 [Example 100, 6-[1-methyl-1-(methylsulfonyl)ethyl]-8-{3-[5-(3-methyl-1,2,4-oxadiazol-5-yl)-1-oxidopyridin-3-yl]phenyl}quinoline]
- IC50: 4.1 nM

Structure (SMILES): Cn1nnc(-c2cc(-c3cccc(-c4cc(C(C)(C)S(C)(=O)=O)cc5cccnc45)c3)c[n+]([O-])c2)n1 [Example 115, 6-[1-methyl-1-(methylsulfonyl)ethyl]-8-{3-[5-(2-methyl-2H-tetraazol-5-yl)-1-oxidopyridin-3-yl]phenyl}quinoline]
- IC50: 2.2 nM

Structure (SMILES): CC(C)(O)c1ccc(-c2nc(-c3ccc(S(C)(=O)=O)cc3)c(-c3cccc(-c4cc(C(C)(C)S(C)(=O)=O)cc5cccnc45)c3)s2)cc1 [Example 157, 2-(4-{5-(3-{6-[1-methyl-1-(methylsulfonyl)ethyl]quinolin-8-yl}phenyl)-4-[4-(methylsulfonyl)phenyl]-1,3-thiazol-2-yl}phenyl)propan-2-ol]
- IC50: 1.7 nM

Structure (SMILES): CC(C)(O)c1nc(-c2ccc(S(C)(=O)=O)cc2)c(-c2cccc(-c3cc(C(=O)NC4CC4)cc4cccnc34)c2)s1 [Example 167, N-cyclopropyl-8-(3-{2-(1-hydroxy-1-methylethyl)-4-[4-(methylsulfonyl)phenyl]-1,3-thiazol-5-yl}phenyl)quinoline-6-carboxamide]
- IC50: 0.4 nM
